Reference: the NIST ThermoML archive (doi:10.1021/je900596d)

Settings: Fluid (supercritical or subcritical phases), Vibrating tube method

FC(F)=C(F)C(F)(F)F [hexafluoropropene]
mass density [kg/m3]
Settings	343.26 K	348.12 K
3.1 kPa	–	0.11
3.7 kPa	–	0.12
4.8 kPa	–	0.23
5.4 kPa	–	0.18
6.4 kPa	–	0.27
7.4 kPa	–	0.23
8.3 kPa	–	0.31
8.9 kPa	–	0.35
9.9 kPa	–	0.43
11.5 kPa	–	0.57
15.2 kPa	–	0.72
17 kPa	–	0.83
18.8 kPa	–	0.9
22.4 kPa	–	1.11
24.2 kPa	–	1.25
27.7 kPa	–	1.44
29.5 kPa	–	1.44
31.2 kPa	–	1.52
34.9 kPa	–	1.74
36.7 kPa	–	1.87
38.3 kPa	–	1.89
41 kPa	–	2.08
43.9 kPa	–	2.27
46.5 kPa	–	2.39
49.3 kPa	–	2.49
55.8 kPa	–	2.86
59.3 kPa	–	3.01
62.6 kPa	–	3.24
65.9 kPa	–	3.31
72.5 kPa	–	3.77
75.7 kPa	–	3.95
78.9 kPa	–	4.06
82.3 kPa	–	4.24
89 kPa	–	4.57
92.4 kPa	–	4.78
95.9 kPa	–	4.89
99.3 kPa	–	5.1
102.8 kPa	–	5.38
108.9 kPa	–	5.66
121.1 kPa	–	6.31
127.3 kPa	–	6.62
139.4 kPa	–	7.29
145.5 kPa	–	7.59
151.6 kPa	–	7.92
157.7 kPa	–	8.3
168.6 kPa	–	8.79
172.3 kPa	–	9.11
176 kPa	–	9.23
186.9 kPa	–	9.89
190.6 kPa	–	10.07
194.2 kPa	–	10.28
201.5 kPa	–	10.61
208.9 kPa	–	10.99
216.2 kPa	–	11.48
230.6 kPa	–	12.26
237.9 kPa	–	12.55
245.2 kPa	–	13.05
252.4 kPa	–	13.5
266.8 kPa	–	14.29
274 kPa	–	14.64
281 kPa	–	15
295.2 kPa	–	15.84
303.3 kPa	–	16.23
310.5 kPa	–	16.69
317.5 kPa	–	17.06
324.5 kPa	–	17.51
331.5 kPa	–	17.9
338.4 kPa	–	18.25
352.2 kPa	–	19.05
359.1 kPa	–	19.45
366 kPa	–	19.85
379.7 kPa	–	20.59
386.5 kPa	–	20.98
393.2 kPa	–	21.4
399.9 kPa	–	21.73
413.4 kPa	–	22.49
420.1 kPa	–	22.92
426.9 kPa	–	23.28
433.5 kPa	–	23.69
443.2 kPa	–	24.38
470.9 kPa	–	25.92
484.7 kPa	–	26.77
498.3 kPa	–	27.51
515 kPa	–	28.53
528 kPa	–	29.29
541 kPa	–	30.15
566.4 kPa	–	31.68
575.8 kPa	33.42	–
579.2 kPa	–	32.43
590.5 kPa	34.28	–
591.2 kPa	–	33.18
603.3 kPa	–	33.86
604.4 kPa	35.15	–
617.9 kPa	35.97	–
631.9 kPa	36.94	–
638.4 kPa	–	36.05
646.4 kPa	37.76	–
655.4 kPa	–	37.08
660.3 kPa	38.68	–
672.1 kPa	–	38.15
674.2 kPa	39.57	–
688.2 kPa	40.47	–
688.5 kPa	–	39.21
701.9 kPa	41.42	–
704.5 kPa	–	40.22
715.6 kPa	42.26	–
720.3 kPa	–	41.24
729.6 kPa	43.14	–
735.8 kPa	–	42.16
743.3 kPa	44.1	–
756.9 kPa	44.99	–
765.5 kPa	–	44.05
770.5 kPa	45.84	–
783.7 kPa	46.78	–
794.2 kPa	–	45.95
797.6 kPa	47.61	–
808 kPa	–	46.91
810.7 kPa	48.57	–
823.9 kPa	49.41	–
827.5 kPa	–	48.2
844.7 kPa	–	49.34
850.2 kPa	51.23	–
863 kPa	52.13	–
863.4 kPa	–	50.7
876.3 kPa	53.04	–
889.1 kPa	53.92	–
890.4 kPa	–	52.34
902.2 kPa	54.71	–
902.7 kPa	–	53.25
914.9 kPa	55.73	–
915.6 kPa	–	54.2
928.7 kPa	56.6	55.05
941.5 kPa	57.53	–
945.4 kPa	–	56.14
954 kPa	58.46	–
967.8 kPa	59.43	–
972.6 kPa	–	58.01
981 kPa	60.4	–
985.8 kPa	–	58.92
994.4 kPa	61.4	–
1005.6 kPa	–	60.36
1008.2 kPa	62.31	–
1020.2 kPa	63.29	–
1023.4 kPa	–	61.55
1034.9 kPa	64.41	–
1040.8 kPa	–	62.84
1046.9 kPa	65.28	–
1057.8 kPa	–	64.05
1060.3 kPa	66.22	–
1073.4 kPa	67.25	–
1074 kPa	–	65.2
1087.5 kPa	68.21	–
1089.6 kPa	–	66.39
1100.8 kPa	69.23	–
1108 kPa	–	67.73
1115.6 kPa	70.43	–
1129.3 kPa	71.49	–
1138.6 kPa	–	69.96
1141.9 kPa	72.46	–
1150.7 kPa	–	70.83
1155.2 kPa	73.52	–
1168.1 kPa	–	72.19
1170.3 kPa	74.72	–
1184.8 kPa	–	73.38
1185.3 kPa	75.94	–
1200.7 kPa	77.06	–
1201.8 kPa	–	74.83
1215.9 kPa	78.32	–
1219.5 kPa	–	76.17
1231.1 kPa	79.48	–
1231.5 kPa	–	77.05
1246.2 kPa	80.8	–
1248.8 kPa	–	78.38
1260.9 kPa	82.02	–
1265.1 kPa	–	79.72
1275.9 kPa	83.2	–
1280.3 kPa	–	80.92
1290.3 kPa	84.46	–
1297.6 kPa	–	82.21
1305.2 kPa	85.7	–
1313.7 kPa	–	83.6
1318.4 kPa	86.81	–
1330.4 kPa	–	84.96
1332.6 kPa	88.06	–
1346.3 kPa	–	86.2
1347.2 kPa	89.34	–
1361.6 kPa	90.6	–
1362.7 kPa	–	87.68
1375.5 kPa	91.86	–
1378.7 kPa	–	88.93
1389.9 kPa	93.09	–
1395.3 kPa	–	90.32
1403.7 kPa	94.34	–
1410.5 kPa	–	91.58
1417.7 kPa	95.63	–
1426.3 kPa	–	92.94
1431.1 kPa	96.88	–
1442.6 kPa	–	94.4
1445 kPa	98.11	–
1458.7 kPa	99.32	–
1460.3 kPa	–	95.93
1471.8 kPa	100.55	–
1473.3 kPa	–	97.06
1485.2 kPa	101.78	–
1487.3 kPa	–	98.32
1498.3 kPa	103.12	–
1511.1 kPa	104.29	–
1511.6 kPa	–	100.57
1540.1 kPa	–	103.11
1562.1 kPa	109.24	–
1566 kPa	–	105.5
1588.6 kPa	111.94	–
1592.2 kPa	–	107.78
1614.7 kPa	114.55	–
1616.1 kPa	–	110.1
1639.3 kPa	–	112.32
1641.2 kPa	117.35	–
1669.2 kPa	120.33	–
1683.8 kPa	–	116.62
1691 kPa	122.68	–
1708.4 kPa	–	119.29
1719.3 kPa	125.81	–
1732.6 kPa	–	121.75
1745.8 kPa	128.82	–
1756.5 kPa	–	124.29
1773.3 kPa	132.05	–
1800.9 kPa	135.31	–
1827.4 kPa	138.58	–
1854.7 kPa	141.97	–
1880.9 kPa	145.46	–
1908.3 kPa	149.04	–
1933.9 kPa	152.57	–
1960.3 kPa	156.37	–
1986.1 kPa	160.18	–
2014.5 kPa	164.44	–
2041.7 kPa	168.76	–
2069.4 kPa	173.21	–
2096.3 kPa	177.82	–
2121.6 kPa	182.61	–
2139 kPa	185.89	–
2156.2 kPa	189.13	–
2172.4 kPa	192.4	–
2188.6 kPa	195.87	–
2204.8 kPa	199.3	–
2221.6 kPa	203.18	–
2237.7 kPa	208.04	–
2240 kPa	209.71	–
2240.5 kPa	210.31	–
2241 kPa	210.66	–
2241.7 kPa	211.34	–
2242.3 kPa	212.06	–
2242.9 kPa	213.01	–
2243.5 kPa	214.62	–
2243.9 kPa	215.07	–
2244.6 kPa	216.87	–
2245.3 kPa	218.74	–
2245.7 kPa	219.44	–
2246.2 kPa	220.03	–
2246.7 kPa	220.73	–
2247.1 kPa	221.76	–
2247.5 kPa	223.54	–
2248 kPa	224.32	–
2248.4 kPa	225.47	–
2248.8 kPa	227.07	–
2249.3 kPa	230.72	–
2249.7 kPa	239.12	–
